# Reference: ChEMBL document CHEMBL1806482, “Flavans from Iris tenuifolia and their effects on β-amyloid aggregation and neural stem cells proliferation in vitro” (Bioorg Med Chem Lett, 2011)
# The source made the active and inactive calls. No cut-off for these calls is given here.
# Columns and labels:
# [1] = Inhibition of amyloid beta (1 to 40) aggregation after 30 mins by thioflavin T fluorescence assay
# [2] = system: NSC; experiment: Induction of NSC proliferation assessed as ATP level; type: functional, cell-based
SMILES,inhibition [1] [%],Activity [2]
C[C@H]1COC2=C1C(=O)C(=O)c1c2ccc2c1CCCC2(C)C,43.7,
COc1cc(OC)c2c(c1)O[C@H]1C[C@@H]2Oc2c(O)cccc21,19.8,inactive
O=C1CC(c2cccc(O)c2O)Oc2cc3c(c(O)c21)OCO3 (stereo not given),61.7,Active
